What was measured:
[1] = Association (partition) of the NBD amphiphiles with native membranes, NBD fluorescence; type: physicochemical, High-Five insect cells; settings: for KPW→M: aqueous phase to native membrane
Protocol: (§1) The membranes were diluted to the chosen concentration with simplified ATPase assay buffer and warmed to 37 °C. The NBD amphiphiles were added from stocks in DMSO (final DMSO 1% v/v) by squirting the required volume into the membrane solution under gentle vortex. Fluorescence intensity was measured after 15 to 30 min incubation at 37 °C using a Cary Eclipse spectrofluorimeter (Varian, Singapore). The path length of the sample container was selected to guarantee that scattering at the excitation wavelength was smaller than 0.1 while maintaining a good signal/noise ratio (3, 5, or 10 mm).
(§2) The increase in fluorescence of the NBD amphiphiles when associated with the model membranes was well described by a simple partition (Equation (S3)). The low affinity of the less lipophilic amphiphiles for the native membranes required the use of high membrane concentrations, and the fluorescence was measured with the plate reader SpectraMax iD5 (Molecular Devices, Berkshire, UK), where the reading setup is not very sensitive to scatter. To guarantee that the high scatter intensity was not leading to artifacts in the measured fluorescence intensity of NBD–C4, titrations of NBD-C6 and NBD–C8 were also performed in the same plate. For these two latter amphiphiles, the results obtained for the partition coefficient were similar to those obtained for experiments with low scatter intensity. A small decrease in the fluorescence intensity from NBD–C8 was nevertheless observed at very high scatter intensities (OD ≥ 0.5), which was used to correct the signal from the less lipophilic amphiphiles, see Supplementary Information (Figure S5 and Equation (S4)). The molar volume considered for the lipid was 0.8 dm^3/mol, and 1.2 g/mL was considered for the density of the membrane proteins.
S3 – Partition of the NBD amphiphiles to lipid bilayers and native membranes The fluorescence increase that accompanies the association of the NBD amphiphiles with the model membra nes was well defined by a simple partition, equation S3. […]
where IfW and If M are respec ti vel y the fluorescence intensity when all fluorescent amphiphile is in the aqueous phase and ass oci ated with the membranes, LbK is the partition co eff icient P between the aqueous and the lipid bilayer, V is the molar vo l u m e of the lipid when in the lipid L bi l ayer, and [L] is the lipid concentration.
To characterize the association of the NBD amphiphiles with the native membranes the whole membrane vo lume was considere d, including the lipid bilayer and the membrane proteins. For the ca se of the less lipophilic amphiphiles NBD‐C4 and NBD‐C6, a sig nif ica nt scatter from the […]
both to the larger size of the vesicles (ca 1 µm diameter, [1]) and to the high refractive index of the native membranes. The magnitude of the scatter effect was quantified through the best fit […]
partition to the membranes at co n ce ntrations where scatter is not significant. The modified […]
where s is the scatter correction factor for a given concentration of native membranes, If W and IfM are respectively the fluorescence intensity when all fluorescent amphiphile is in the aqueous phase and associated with the membranes, WMK → is the partition coefficient between the P aqueous phase and the native membrane, V is the molar volume of the lipid when in the L membrane and [L] the molar concentration of the membrane lipids, V is the vo lume occupied P by 1 g of membrane protein (assuming a density of 1.2 g/mL) and [P] is the protein concentration in units of ma ss per volume.
Typical results obtained for the variation of the fluorescence intensity at 540 nm of the NBD‐Cn fluorophores equilibrated with increasing concentrations of native membranes, are shown in figure S3. The fluorescence intensity was measured in black 96 well plates with the plate reader […]
SpectraMax iD5. The NBD‐Cn concentrations we re 0.5 µM for NBD‐C8 , 1 µM for NBD‐C6, and 2 µM for NBD‐C4, and the total volume per well was 150 µL. […]

[2] = Association (partition) with model membranes (LUVs POPE:POPC:POPS 45:35:20); type: physicochemical; settings: aqueous phase to model lipid bilayer
Protocol: The model membranes with a phospholipid composition representative of that of the native membranes (POPE:POPC:POPS 45:35 20) were prepared from stock solutions of the required lipids in chloroform or in chloroform/methanol (87/13, v/v), as described before. The solvent-free lipid residue was hydrated at 40 °C with previously heated simplified ATPase assay buffer (with all components except Ouabain and DTT). Large Unilamelar Vesicles were prepared by extrusion through two-staked polycarbonate filters (100 nm pore diameter), and the size of the LUVs was analyzed by dynamic light scattering (Zetasizer Nano ZS, Malvern, UK) being close to the filter pore size.
as §1, §2
S3 – Partition of the NBD amphiphiles to lipid bilayers and native membranes
The fluorescence increase that accompanies the association of the NBD amphiphiles with the
model membra nes was well defined by a simple partition, equation S3.
If 1540 nm Lb= + S3, KVL[]
where IfW and If M are respec ti vel y the fluorescence intensity when all fluorescent amphiphile is
in the aqueous phase and ass oci ated with the membranes, LbK is the partition co eff icient P
between the aqueous and the lipid bilayer, V is the molar vo l u m e of the lipid when in the lipid L
bi l ayer, and [L] is the lipid concentration. […]

P–gp = test: Partition coefficient to membrane protein from Equations (1) and (2), binding to P–gp only; type: physicochemical, mouse; settings: binding to the protein P–gp only
Excerpt: (§3) From the partition coefficient obtained for the native membranes, KPW→M , and that for the model lipid bilayers, KPW→Lb , one can calculate the partition coefficient between the aqueous phase and the proteins in the membrane, KPW→P , and from the lipid bilayer to the proteins, KPLb→P , Equations (1) and (2), [40]. (1) KPW→M VM=KPW→PVP+KPW→Lb VLb (2) KPLb→P=KPW→P/KPW→Lb
(§4) In Equation (1) it is necessary to include the volume occupied by the proteins, and the values obtained will, therefore, depend on whether it is considered that the amphiphile may interact with all proteins in the membrane or with P–gp only.

[3] = Partition coefficient to membrane proteins from Equations (1) and (2), all membrane proteins with equal affinity; type: physicochemical, High-Five insect cells; settings: binding to all membrane proteins with equal affinity
Excerpt: as §3, §4

[4] = cited from earlier work
[5] = e.g. 1 M trehalose; cited from earlier work
mP–gp [6] = target: T1, mP–gp (Mus musculus, UniProt P21447); test: Photolabeling of P–gp with [125I]-IAAP / IAAP displacement; type: binding; settings: concentration of 2 μM, positive control
T1 construct: made in house; host or cells: High-Five insect cells (Invitrogen), recombinant baculovirus; total membrane vesicles
T1 sequence (P21447 whole entry): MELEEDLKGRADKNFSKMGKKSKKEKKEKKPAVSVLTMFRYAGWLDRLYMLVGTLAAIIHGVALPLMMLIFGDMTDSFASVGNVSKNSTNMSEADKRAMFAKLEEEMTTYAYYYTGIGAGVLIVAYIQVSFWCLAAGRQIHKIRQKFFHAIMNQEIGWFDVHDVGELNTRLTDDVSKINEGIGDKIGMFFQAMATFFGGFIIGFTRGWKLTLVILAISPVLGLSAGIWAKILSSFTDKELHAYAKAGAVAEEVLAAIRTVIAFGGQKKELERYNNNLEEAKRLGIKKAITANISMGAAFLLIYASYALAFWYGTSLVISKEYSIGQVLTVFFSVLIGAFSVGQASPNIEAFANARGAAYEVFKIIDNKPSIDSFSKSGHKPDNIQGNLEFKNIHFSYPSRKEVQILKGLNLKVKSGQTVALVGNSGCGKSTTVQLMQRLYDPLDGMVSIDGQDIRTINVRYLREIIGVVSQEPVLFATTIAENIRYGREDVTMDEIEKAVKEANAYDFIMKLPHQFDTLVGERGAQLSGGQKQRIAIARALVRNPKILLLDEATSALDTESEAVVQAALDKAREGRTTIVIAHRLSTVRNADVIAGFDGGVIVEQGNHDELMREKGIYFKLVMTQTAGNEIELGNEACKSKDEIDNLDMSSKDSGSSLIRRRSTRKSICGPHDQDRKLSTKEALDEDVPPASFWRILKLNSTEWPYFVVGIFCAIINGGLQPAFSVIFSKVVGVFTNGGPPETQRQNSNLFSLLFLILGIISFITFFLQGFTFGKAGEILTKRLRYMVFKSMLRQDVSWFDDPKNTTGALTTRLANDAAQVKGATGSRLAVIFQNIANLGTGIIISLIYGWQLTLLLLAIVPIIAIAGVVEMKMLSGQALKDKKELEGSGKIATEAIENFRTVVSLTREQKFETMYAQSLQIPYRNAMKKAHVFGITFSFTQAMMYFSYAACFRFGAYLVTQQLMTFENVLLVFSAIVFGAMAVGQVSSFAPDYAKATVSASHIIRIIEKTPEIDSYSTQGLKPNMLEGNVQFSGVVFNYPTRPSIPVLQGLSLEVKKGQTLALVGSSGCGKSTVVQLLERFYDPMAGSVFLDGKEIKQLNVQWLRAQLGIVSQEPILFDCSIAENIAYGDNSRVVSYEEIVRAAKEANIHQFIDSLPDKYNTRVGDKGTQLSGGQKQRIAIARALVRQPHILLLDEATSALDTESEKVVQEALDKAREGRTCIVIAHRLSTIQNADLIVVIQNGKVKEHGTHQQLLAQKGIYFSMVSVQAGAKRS
Protocol: The native membranes of High-Five insect cells expressing mP–gp (1.0 mg/mL) were incubated at room temperature with the indicated concentrations of the inhibitor for 5 min. IAAP (5 to 7 nM) was later added, and the reaction mixture was further incubated for 5 min under subdued light. The samples were photocross-linked with 366 nm UV light for 10 min at room temperature, followed by electrophoresis and quantification, as described previously. The raw data are shown in the Supplementary Information (Figure S4). The results were first analyzed with the usual equation, considering the total concentration of IAAP and NBD amphiphile, as well as competitive inhibition of IAAP binding, see Supplementary Information (Equation (S2)). The dissociation constant considered for IAAP was taken from the literature, 412 nM [15]. The results were also analyzed with a formalism derived in this manuscript considering the distribution of the NBD amphiphile in the distinct environments (aqueous phase, lipid bilayer, and P–gp), the distribution of IAAP between the aqueous media and P–gp, and several equal and independent binding sites in P–gp’s binding pocket, Equation (10).
In this assay, in addition to the binding of the NBD amphiphiles to P–gp binding pocket, it is also necessary to consider the binding of IAAP. The concentration of IAAP used in the assay (5 nM) is several orders of magnitude smaller than that of the amphiphiles in study, and it is also smaller than the total concentration of P–gp (59 nM). Therefore, Equation (8) may be used to calculate the concentration of free ligand and protein. The fraction of IAAP bound to P–gp may then be calculated from Equation (10), where P^* is the concentration of P–gp available for IAAP binding. (10) IP/IT=−b−b^2−4ac/2aa=1; b=−1+KdIAAP/IT+P^*/IT; c=P^*/IT
The number of binding sites in P–gp binding pocket was varied from 1 to 5, and three situations were considered in the analysis: (i) full inhibition of IAAP binding when at least one NBD amphiphile is in the P–gp binding pocket ( i≥1 ), corresponding to P^*=P; (ii) inhibition of IAAP binding only when P–gp is fully saturated ( i=n ), corresponding to P^*=P+∑i=1n−1PLi; and (iii) an intermediate situation with IAAP displacement for i≥n−1 , corresponding to P^*=P+∑i=1n−2PLi .
The displacement of IAAP from P–gp binding pocket was calculated from Equation (11), where IP0 is the concentration of IAAP bound to P–gp in the absence of the NBD amphiphiles. (11) IAAP displacement %=100IP0−IP/IP0

mP–gp [7] = target: T1, mP–gp; set-up: method as in PMID 28283574; settings: positive control; read-out: KI, inhibition of IAAP binding; cited from earlier work

With `CCCCCCNc1ccc([N+](=O)[O-])c2nonc12` [NBD-C6] the “LogKP, association with the native membranes” value ([1]; 37 °C, simplified ATPase assay buffer) was 3.20 ± 0.26, the KPW→M ([1]; membrane volume = phospholipid bilayer and P–gp (binding to the protein P–gp only)) was 3.9 × 10^3 and the KPW→M ([1]; membrane volume = phospholipid bilayer and all proteins (binding to all membrane proteins with equal affinity)) was 1.6 × 10^3. For the same compound, the KPW→Lb ([2]; section: binding to all membrane proteins with equal affinity) was 2.4 × 10^3, the KPW→Lb ([2]; section: binding to the protein P–gp only) was 2.4 × 10^3 and the KPW→P (P–gp; aqueous phase to protein) was 1.0 × 10^5. The KPLb→P (P–gp; lipid bilayer to protein) was 43, the KPW→P ([3]; aqueous phase to proteins) was 1.0 × 10^3 and the KPLb→P ([3]; lipid bilayer to proteins) was 0.43. The “LogKP, association with POPC bilayers” value [4] was 3.79.

In the case of `CCCCCCCCCCNc1ccc([N+](=O)[O-])c2nonc12` [NBD-C10], the “increase of CAC in the presence of co-solvent” value [5] is listed as 6 fold.

In the case of `COc1cc2c(cc1OC)CN(CCc1ccc(NC(=O)c3cc(OC)c(OC)cc3NC(=O)c3cnc4ccccc4c3)cc1)CC2` [Tariquidar, reference compound], the “Inhibition of IAAP binding” value (mP–gp [6]) is given as “efficient inhibition of IAAP binding” and the Ki (mP–gp [7]) is given as 0.2 µM.

— paper PMC9862096, “Interaction of a Homologous Series of Amphiphiles with P-glycoprotein in a Membrane Environment—Contributions of Polar and Non-Polar Interactions” (Pharmaceutics, 2023)
